Reference: EP0075167B1 (priority 1981, dated 1983)
Like-named read-outs stand apart in the source and are kept apart here.

How the values were obtained:
Phytophthora infestans [1] = type: in vivo; conditions: systemic; preparation poured onto standard soil of young tomato plants; inoculated 3 days after treatment; 100% rel. humidity, ca. 20°C; evaluated 3 days after inoculation; compared with prior-art comparison substances
Phytophthora infestans [2] = type: in vivo; conditions: protective; young tomato plants sprayed to dripping wet, then inoculated with spore suspension; 100% rel. humidity, ca. 20°C; evaluated 3 days after inoculation; compared with prior-art comparison substances

Compound	Wirksamkeit (Phytophthora infestans [1])	Wirksamkeit (Phytophthora infestans [2])
C=C(C)N(C(=O)COC)c1c(C)cccc1C [Beispiel 1, N-Me-^1 thoxyacetyl-N-(1-methylvinyl)-2,6-dimethylanilin]	deutliche Überlegenheit in der Wirksamkeit gegenüber dem Stand der Technik	deutliche Überlegenheit in der Wirksamkeit gegenüber dem Stand der Technik
C=C(C)N(C(=O)Cn1cncn1)c1c(C)cccc1C [Beispiel 8, N-(1-Methylvinyl)-N-(1,2,4-triazol-1-yl-acetyl)-2,6-dimethylanilin]	–	deutliche Überlegenheit in der Wirksamkeit gegenüber dem Stand der Technik
C#CCOCC(=O)N(C=C)c1c(C)cccc1C [Beispiel 9, N-Propargyloxyacetyl-N-vinyl-2,6-dimethylanilin]	deutliche Überlegenheit in der Wirksamkeit gegenüber dem Stand der Technik	–
